US6358885B1, “Substituted phenylheterocyclic herbicides” (Mississippi State University, priority 1992, dated 2002)

Columns and labels:
Experiment in all cases: Test B preemergence/postemergence greenhouse plant response rating 0 to 10
Settings in all cases: 0 to 10 scale
cheatgrass = type: in vivo, Bromus secalinus
Outline: (§1)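 Planted seeds are treated preemergence with compound dissolved in a non-phytotoxic solvent, while postemergence applications go onto plants of two to eighteen cm. Plants stay in the greenhouse twelve to sixteen days and are then rated visually relative to controls.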

corn = type: in vivo, Zea mays
Outline: as §1

purple nutsedge = type: in vivo, Cyperus rotundus
Outline: as §1

sugar beet = type: in vivo, Beta vulgaris
Outline: as §1

rice = type: in vivo, Oryza sativa
Outline: as §1

soybean = type: in vivo, Glycine max
Outline: as §1

crabgrass = type: in vivo, Digitaria spp.
Outline: as §1

blackgrass = type: in vivo, Alopecurus myosuroides
Outline: as §1

rape = type: in vivo, Brassica napus
Outline: as §1

giant foxtail = type: in vivo, Setaria faberii
Outline: as §1

chickweed = type: in vivo, Stellaria media
Outline: as §1

barley = type: in vivo, Hordeum vulgare
Outline: as §1

morningglory = type: in vivo, Ipomoea hederacea
Outline: as §1

lambsquarters = type: in vivo, Chenopodium album
Outline: as §1

sorghum = type: in vivo, Sorghum bicolor
Outline: as §1

wheat = type: in vivo, Triticum aestivum
Outline: as §1

barnyardgrass = type: in vivo, Echinochloa crus-galli
Outline: as §1

bedstraw = type: in vivo, Galium aparine
Outline: as §1

wild buckwheat = type: in vivo, Polygonum convolvulus
Outline: as §1

cotton = type: in vivo, Gossypium hirsutum
Outline: as §1

velvetleaf = type: in vivo, Abutilon theophrasti
Outline: as §1

cocklebur = type: in vivo, Xanthium pensylvanicum
Outline: as §1

wild oat = type: in vivo, Avena fatua
Outline: as §1

## C=CCOC(=O)COc1cc(-c2nn3c(c2Cl)CCCC3)c(F)cc1Cl [Compound 62]
cheatgrass; POSTEMERGENCE, Rate 10 g/ha
  Plant response rating, Cheatgrass: 1
cheatgrass; POSTEMERGENCE, Rate 50 g/ha
  Plant response rating, Cheatgrass: 2
cheatgrass; PREEMERGENCE, Rate 10 g/ha
  Plant response rating, Cheatgrass: 0
cheatgrass; PREEMERGENCE, Rate 50 g/ha
  Plant response rating, Cheatgrass: 0
corn; POSTEMERGENCE, Rate 10 g/ha
  Plant response rating, Corn: 2
corn; POSTEMERGENCE, Rate 50 g/ha
  Plant response rating, Corn: 5
corn; PREEMERGENCE, Rate 50 g/ha
  Plant response rating, Corn: 0
Purple nutsedge; POSTEMERGENCE, Rate 10 g/ha
  Plant response rating, Nutsedge: 0
Purple nutsedge; POSTEMERGENCE, Rate 50 g/ha
  Plant response rating, Nutsedge: 0
Purple nutsedge; PREEMERGENCE, Rate 50 g/ha
  Plant response rating, Nutsedge: 0
Sugar beet; POSTEMERGENCE, Rate 10 g/ha
  Plant response rating, Sugar beet: 10
Sugar beet; POSTEMERGENCE, Rate 50 g/ha
  Plant response rating, Sugar beet: 10
Sugar beet; PREEMERGENCE, Rate 50 g/ha
  Plant response rating, Sugar beet: 10
rice; POSTEMERGENCE, Rate 10 g/ha
  Plant response rating, Rice: 3
rice; POSTEMERGENCE, Rate 50 g/ha
  Plant response rating, Rice: 3
rice; PREEMERGENCE, Rate 50 g/ha
  Plant response rating, Rice: 0
soybean; POSTEMERGENCE, Rate 10 g/ha
  Plant response rating, Soybean: 2
soybean; POSTEMERGENCE, Rate 50 g/ha
  Plant response rating, Soybean: 8
soybean; PREEMERGENCE, Rate 50 g/ha
  Plant response rating, Soybean: 0
crabgrass; POSTEMERGENCE, Rate 10 g/ha
  Plant response rating, Crabgrass: 1
crabgrass; POSTEMERGENCE, Rate 50 g/ha
  Plant response rating, Crabgrass: 2
crabgrass; PREEMERGENCE, Rate 10 g/ha
  Plant response rating, Crabgrass: 0
crabgrass; PREEMERGENCE, Rate 50 g/ha
  Plant response rating, Crabgrass: 0
blackgrass; POSTEMERGENCE, Rate 10 g/ha
  Plant response rating, Blackgrass: 1
blackgrass; POSTEMERGENCE, Rate 50 g/ha
  Plant response rating, Blackgrass: 2
blackgrass; PREEMERGENCE, Rate 10 g/ha
  Plant response rating, Blackgrass: 0
blackgrass; PREEMERGENCE, Rate 50 g/ha
  Plant response rating, Blackgrass: 0
rape; POSTEMERGENCE, Rate 10 g/ha
  Plant response rating, Rape: 1
rape; POSTEMERGENCE, Rate 50 g/ha
  Plant response rating, Rape: 6
rape; PREEMERGENCE, Rate 50 g/ha
  Plant response rating, Rape: 0
Giant foxtail; POSTEMERGENCE, Rate 10 g/ha
  Plant response rating, Giant foxtail: 1
Giant foxtail; POSTEMERGENCE, Rate 50 g/ha
  Plant response rating, Giant foxtail: 3
Giant foxtail; PREEMERGENCE, Rate 10 g/ha
  Plant response rating, Giant foxtail: 0
Giant foxtail; PREEMERGENCE, Rate 50 g/ha
  Plant response rating, Giant foxtail: 0
chickweed; POSTEMERGENCE, Rate 10 g/ha
  Plant response rating, Chickweed: 0
chickweed; POSTEMERGENCE, Rate 50 g/ha
  Plant response rating, Chickweed: 3
chickweed; PREEMERGENCE, Rate 50 g/ha
  Plant response rating, Chickweed: 0
barley; POSTEMERGENCE, Rate 10 g/ha
  Plant response rating, Barley: 1
barley; POSTEMERGENCE, Rate 50 g/ha
  Plant response rating, Barley: 1
barley; PREEMERGENCE, Rate 10 g/ha
  Plant response rating, Barley: 0
barley; PREEMERGENCE, Rate 50 g/ha
  Plant response rating, Barley: 0
morningglory; POSTEMERGENCE, Rate 10 g/ha
  Plant response rating, Morningglory: 6
morningglory; POSTEMERGENCE, Rate 50 g/ha
  Plant response rating, Morningglory: 9
morningglory; PREEMERGENCE, Rate 50 g/ha
  Plant response rating, Morningglory: 0
lambsquarters; POSTEMERGENCE, Rate 10 g/ha
  Plant response rating, Lambsquarter: 8
lambsquarters; POSTEMERGENCE, Rate 50 g/ha
  Plant response rating, Lambsquarter: 9
lambsquarters; PREEMERGENCE, Rate 50 g/ha
  Plant response rating, Lambsquarter: 9
sorghum; POSTEMERGENCE, Rate 10 g/ha
  Plant response rating, Sorghum: 2
sorghum; POSTEMERGENCE, Rate 50 g/ha
  Plant response rating, Sorghum: 2
sorghum; PREEMERGENCE, Rate 50 g/ha
  Plant response rating, Sorghum: 0
wheat; POSTEMERGENCE, Rate 10 g/ha
  Plant response rating, Wheat: 2
wheat; POSTEMERGENCE, Rate 50 g/ha
  Plant response rating, Wheat: 2
wheat; PREEMERGENCE, Rate 50 g/ha
  Plant response rating, Wheat: 2
barnyardgrass; POSTEMERGENCE, Rate 10 g/ha
  Plant response rating, Barnyardgrass: 2
barnyardgrass; POSTEMERGENCE, Rate 50 g/ha
  Plant response rating, Barnyardgrass: 3
barnyardgrass; PREEMERGENCE, Rate 10 g/ha
  Plant response rating, Barnyardgrass: 0
barnyardgrass; PREEMERGENCE, Rate 50 g/ha
  Plant response rating, Barnyardgrass: 0
bedstraw; POSTEMERGENCE, Rate 10 g/ha
  Plant response rating, Bedstraw: 8
bedstraw; POSTEMERGENCE, Rate 50 g/ha
  Plant response rating, Bedstraw: 9
bedstraw; PREEMERGENCE, Rate 10 g/ha
  Plant response rating, Bedstraw: 7
bedstraw; PREEMERGENCE, Rate 50 g/ha
  Plant response rating, Bedstraw: 7
Wild buckwheat; POSTEMERGENCE, Rate 10 g/ha
  Plant response rating, Wild buckwheat: 2
Wild buckwheat; POSTEMERGENCE, Rate 50 g/ha
  Plant response rating, Wild buckwheat: 10
Wild buckwheat; PREEMERGENCE, Rate 50 g/ha
  Plant response rating, Wild buckwheat: 0
cotton; POSTEMERGENCE, Rate 10 g/ha
  Plant response rating, Cotton: 10
cotton; POSTEMERGENCE, Rate 50 g/ha
  Plant response rating, Cotton: 10
cotton; PREEMERGENCE, Rate 10 g/ha
  Plant response rating, Cotton: 0
cotton; PREEMERGENCE, Rate 50 g/ha
  Plant response rating, Cotton: 0
velvetleaf; POSTEMERGENCE, Rate 10 g/ha
  Plant response rating, Velvetleaf: 7
velvetleaf; POSTEMERGENCE, Rate 50 g/ha
  Plant response rating, Velvetleaf: 10
velvetleaf; PREEMERGENCE, Rate 50 g/ha
  Plant response rating, Velvetleaf: 2
cocklebur; POSTEMERGENCE, Rate 10 g/ha
  Plant response rating, Cocklebur: 5
cocklebur; POSTEMERGENCE, Rate 50 g/ha
  Plant response rating, Cocklebur: 9
cocklebur; PREEMERGENCE, Rate 10 g/ha
  Plant response rating, Cocklebur: 0
cocklebur; PREEMERGENCE, Rate 50 g/ha
  Plant response rating, Cocklebur: 0
Wild oat; POSTEMERGENCE, Rate 10 g/ha
  Plant response rating, Wild oat: 1
Wild oat; POSTEMERGENCE, Rate 50 g/ha
  Plant response rating, Wild oat: 2
Wild oat; PREEMERGENCE, Rate 50 g/ha
  Plant response rating, Wild oat: 0
